In patent US11084800B2 (Achillion Pharmaceuticals, Inc., priority 2017, dated 2021):

Target: Human Factor D (Homo sapiens (Human), UniProt P00746)
Experiment: Human Factor D Assay
Type: biochemical
Conditions: Factor D inhibition, assay of Example 10; read-out: IC5 (Stars)
How it was run: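 Thioester substrate Z-L-Lys-SBz (100 μM) with Ellman's reagent DTNB (100 μM) reports activity of 80 nM human serum-derived enzyme, kinetically at 405 nm over 30 min. Compound preincubated 5 min, room temperature, pH 7.5 Tris/1 M NaCl; IC50 by nonlinear fit of rates.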

Human Factor D, sequence (P00746 26-253): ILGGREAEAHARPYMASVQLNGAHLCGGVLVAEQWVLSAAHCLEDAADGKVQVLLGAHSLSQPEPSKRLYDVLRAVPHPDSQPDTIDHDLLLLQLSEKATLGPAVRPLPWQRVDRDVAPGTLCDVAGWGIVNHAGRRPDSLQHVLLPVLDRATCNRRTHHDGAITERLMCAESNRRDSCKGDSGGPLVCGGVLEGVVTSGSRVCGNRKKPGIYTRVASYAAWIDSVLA

SMILES	IC50 [nM]
CC(=O)c1nn(CC(=O)N2C[C@@](F)(CF)C[C@H]2C(=O)Nc2nc(Br)ccc2C)c2c(C)nc(-c3cnc(C)nc3)cc12 [Compound 410, (2S,4R)-1-(2-(3-acetyl-7-methyl-5-(2-methylpyrimidin-5-yl)-1H-pyrazolo[3,4-c]pyridin-1-yl)acetyl)-N-(6-bromo-3-methylpyridin-2-yl)-4-fluoro-4-(fluoromethyl)pyrrolidine-2-carboxamide]	< 1000
CC(=O)c1nn(CC(=O)N2C[C@H]3C[C@H]3[C@H]2C(=O)NCc2cccc(Cl)c2F)c2c(C)nc(-c3cnc(C)nc3)cc12 [Compound 411, (1R,2S,5S)-3-(2-(3-acetyl-7-methyl-5-(2-methylpyrimidin-5-yl)-1H-pyrazolo[3,4-c]pyridin-1-yl)acetyl)-N-(3-chloro-2-fluorobenzyl)-3-azabicyclo[3.1.0]hexane-2-carboxamide]	< 1000
CC(=O)c1nn(CC(=O)N2C[C@H]3C[C@H]3[C@H]2C(=O)NCc2cccc(Cl)c2F)c2ccc(-c3cnc(C)nc3)cc12 [Compound 412, (1R,2S,5S)-3-(2-(3-acetyl-5-(2-methylpyrimidin-5-yl)-1H-indazol-1-yl)acetyl)-N-(3-chloro-2-fluorobenzyl)-3-azabicyclo[3.1.0]hexane-2-carboxamide]	< 1000
CC(=O)c1nn(CC(=O)N2C[C@H]3C[C@H]3[C@H]2C(=O)NCc2cccc(Cl)c2F)c2c(C)cc(-c3cnc(C)nc3)cc12 [Compound 413]	< 1000
CC(=O)c1nn(CC(=O)N2[C@H](C(=O)Nc3nc(Br)ccc3C)C[C@@]3(CN(C(C)C)C(C)C)C[C@@H]23)c2c(C)cc(-c3cnc(C)nc3)cc12 [Compound 415, (1R,3S,5R)-2-(2-(3-acetyl-7-methyl-5-(2-methylpyrimidin-5-yl)-1H-indazol-1-yl)acetyl)-N-(6-bromo-3-methylpyridin-2-yl)-5-((diisopropylamino)methyl)-2-azabicyclo[3.1.0]hexane-3-carboxamide]	< 1000
CC(=O)c1cn(CC(=O)N2[C@H](C(=O)Nc3nc(Br)ccc3C)C[C@@]3(C)C[C@@H]23)c2ccc(-c3cnc(C)nc3)cc12 [Compound 416, (1R,3S,5R)-2-(2-(3-acetyl-5-(2-methylpyrimidin-5-yl)-1H-indol-1-yl)acetyl)-N-(6-bromo-3-methylpyridin-2-yl)-5-methyl-2-azabicyclo[3.1.0]hexane-3-carboxamide]	< 1000
CC(=O)c1nn(CC(=O)N2C[C@@](F)(CF)C[C@H]2C(=O)Nc2nc(Br)c(F)cc2C)c2c(C)nc(-c3cnc(C)nc3)cc12 [Compound 417, (2S,4R)-1-(2-(3-acetyl-7-methyl-5-(2-methylpyrimidin-5-yl)-1H-pyrazolo[3,4-c]pyridin-1-yl)acetyl)-N-(6-bromo-5-fluoro-3-methylpyridin-2-yl)-4-fluoro-4-(fluoromethyl)pyrrolidine-2-carboxamide]	< 1000
CC(=O)c1nn(CC(=O)N2C[C@@](F)(CF)C[C@H]2C(=O)Nc2cncc(Br)n2)c2c(C)nc(-c3cnc(C)nc3)cc12 [Compound 418, (2S,4R)-1-(2-(3-acetyl-7-methyl-5-(2-methylpyrimidin-5-yl)-1H-pyrazolo[3,4-c]pyridin-1-yl)acetyl)-N-(6-bromopyrazin-2-yl)-4-fluoro-4-(fluoromethyl)pyrrolidine-2-carboxamide]	< 1000
CC(=O)c1nn(CC(=O)N2C[C@](F)(Cn3ccnn3)C[C@H]2C(=O)Nc2nc(Br)ccc2C)c2ccc(-c3cnc(C)nc3)cc12 [Compound 419]	< 1000
CC(=O)c1nn(CC(=O)N2C[C@](F)(CN(C)C)C[C@H]2C(=O)Nc2nc(Br)ccc2C)c2ccc(-c3cnc(C)nc3)cc12 [Compound 420, (2S,4R)-1-(2-(3-acetyl-5-(2-methylpyrimidin-5-yl)-1H-indazol-1-yl)acetyl)-N-(6-bromo-3-methylpyridin-2-yl)-4-((dimethylamino)methyl)-4-fluoropyrrolidine-2-carboxamide]	1000 to 10000
CC(=O)c1nn(CC(=O)N2C[C@](F)(CF)C[C@H]2C(=O)Nc2nc(Br)ccc2C)c2ccc(-c3cnc(C)nc3)cc12 [Compound 422, (2S,4S)-1-(2-(3-acetyl-5-(2-methylpyrimidin-5-yl)-1H-indazol-1-yl)acetyl)-N-(6-bromo-3-methylpyridin-2-yl)-4-fluoro-4-(fluoromethyl)pyrrolidine-2-carboxamide]	< 1000
CC(=O)c1nn(CC(=O)N2[C@H](C(=O)Nc3nc(Br)c(F)cc3C)C[C@@]3(Cc4nc(C)no4)C[C@@H]23)c2c(C)nc(-c3cnc(C)nc3)cc12 [Compound 423, (1R,3S,5R)-2-(2-(3-acetyl-7-methyl-5-(2-methylpyrimidin-5-yl)-1H-pyrazolo[3,4-c]pyridin-l-yl)acetyl)-N-(6-bromo-5-fluoro-3-methylpyridin-2-yl)-5-((3-methyl-1,2,4-oxadiazol-5-yl)methyl)-2-azabicyclo[3.1.0]hexane-3-carboxamide]	< 1000
CC(=O)c1nn(CC(=O)N2[C@H](C(=O)Nc3nc(Br)c(F)cc3C)C[C@@]3(Cc4nc(C)no4)C[C@@H]23)c2c(C)cc(-c3cnc(C)nc3)cc12 [Compound 424, (1R,3S,5R)-2-(2-(3-acetyl-7-methyl-5-(2-methylpyrimidin-5-yl)-1H-indazol-1-yl)acetyl)-N-(6-bromo-5-fluoro-3-methylpyridin-2-yl)-5-((3-methyl-1,2,4-oxadiazol-5-yl)methyl)-2-azabicyclo[3.1.0]hexane-3-carboxamide]	< 1000
CC(=O)c1nn(CC(=O)N2[C@H](C(=O)Nc3nc(C(F)(F)F)ccc3C)C[C@@]3(Cc4nc(C)no4)C[C@@H]23)c2c(C)cc(-c3cnc(C)nc3)cc12 [Compound 425, (1R,3S,5R)-2-(2-(3-acetyl-7-methyl-5-(2-methylpyrimidin-5-yl)-1H-indazol-1-yl)acetyl)-5-((3-methyl-1,2,4-oxadiazol-5-yl)methyl)-N-(3-methyl-6-(trifluoromethyl)pyridin-2-yl)-2-azabicyclo[3.1.0]hexane-3-carboxamide]	< 1000
CC(=O)c1cn(CC(=O)N2[C@H](C(=O)Nc3nc(Br)ccc3C)C[C@@]3(C)C[C@@H]23)c2c(C)cc(-c3cnc(C)nc3)cc12 [Compound 426, (1R,3S,5R)-2-(2-(3-acetyl-7-methyl-5-(2-methylpyrimidin-5-yl)-1H-indol-1-yl)acetyl)-N-(6-bromo-3-methylpyridin-2-yl)-5-methyl-2-azabicyclo[3.1.0]hexane-3-carboxamide]	< 1000
CC(=O)c1nn(CC(=O)N2[C@H](C(=O)NCc3cccc(Cl)c3F)C[C@@]3(Cc4nc(C)no4)C[C@@H]23)c2c(C)cc(-c3cnc(C)nc3)cc12 [Compound 427, (1R,3S,5R)-2-(2-(3-acetyl-7-methyl-5-(2-methylpyrimidin-5-yl)-1H-indazol-1-yl)acetyl)-N-(3-chloro-2-fluorobenzyl)-5-((3-methyl-1,2,4-oxadiazol-5-yl)methyl)-2-azabicyclo[3.1.0]hexane-3-carboxamide]	< 1000
CC(=O)c1nn(CC(=O)N2[C@H](C(=O)Nc3nc(Br)ccc3Cl)C[C@@]3(Cc4nc(C)no4)C[C@@H]23)c2c(C)cc(-c3cnc(C)nc3)cc12 [Compound 428, (1R,3S,5R)-2-(2-(3-acetyl-7-methyl-5-(2-methylpyrimidin-5-yl)-1H-indazol-1-yl)acetyl)-N-(6-bromo-3-chloropyridin-2-yl)-5-((3-methyl-1,2,4-oxadiazol-5-yl)methyl)-2-azabicyclo[3.1.0]hexane-3-carboxamide]	< 1000
CC(=O)c1nn(CC(=O)N2[C@H](C(=O)Nc3nc(Br)ccc3C)C[C@@]3(Cc4nnc(C)o4)C[C@@H]23)c2c(CF)cc(-c3cnc(C)nc3)cc12 [Compound 429, (1R,3S,5R)-2-(2-(3-acetyl-7-(fluoromethyl)-5-(2-methylpyrimidin-5-yl)-1H-indazol-1-yl)acetyl)-N-(6-bromo-3-methylpyridin-2-yl)-5-((5-methyl-1,3,4-oxadiazol-2-yl)methyl)-2-azabicyclo[3.1.0]hexane-3-carboxamide]	< 1000
CC(=O)c1nn(CC(=O)N2C[C@](C)(F)C[C@H]2C(=O)Nc2nc(Br)ccc2C)c2ccc(-c3cnc(C)nc3)cc12 [Compound 430, (2S,4R)-1-{2-[3-Acetyl-5-(2-methylpyrimidin-5-yl)indazol-1-yl]acetyl}-N-(6-bromo-3-methylpyridin-2-yl)-4-fluoro-4-methylpyrrolidine-2-carboxamide]	< 1000
Cc1ncc(-c2cc3c(C(N)=O)nn(CC(=O)N4[C@H](C(=O)Nc5nc(Br)c(F)cc5C)C[C@@]5(C)C[C@@H]45)c3c(C)n2)cn1 [Compound 431, 1-(2-((1R,3S,5R)-3-((6-bromo-5-fluoro-3-methylpyridin-2-yl)carbamoyl)-5-methyl-2-azabicyclo[3.1.0]hexan-2-yl)-2-oxoethyl)-7-methyl-5-(2-methylpyrimidin-5-yl)-1H-pyrazolo[3,4-c]pyridine-3-carboxamide]	< 1000
CC(=O)c1nn(CC(=O)N2C[C@](C)(F)C[C@H]2C(=O)Nc2nc(Br)ccc2C)c2c(C)nc(-c3cnc(C)nc3)cc12 [Compound 432, (2S,4R)-1-(2-(3-acetyl-7-methyl-5-(2-methylpyrimidin-5-yl)-1H-pyrazolo[3,4-c]pyridin-1-yl)acetyl)-N-(6-bromo-3-methylpyridin-2-yl)-4-fluoro-4-methylpyrrolidine-2-carboxamide]	< 1000
CC(=O)c1nn(CC(=O)N2C[C@](C)(F)C[C@H]2C(=O)Nc2nc(Br)ccc2C)c2c(C)cc(-c3cnc(C)nc3)cc12 [Compound 433, (2S,4R)-1-(2-(3-acetyl-7-methyl-5-(2-methylpyrimidin-5-yl)-1H-indazol-1-yl)acetyl)-N-(6-bromo-3-methylpyridin-2-yl)-4-fluoro-4-methylpyrrolidine-2-carboxamide]	< 1000

Same assay, conditions: Table 8; Factor D 80 nM, substrate Z-L-Lys-SBz; read-out: IC50

SMILES	IC50 [nM]
CC(=O)c1nn(CC(=O)N2[C@H](C(=O)Nc3nc(Br)ccc3C)C[C@@]3(C)C[C@@H]23)c2cnc(-c3cnc(CNC(=O)COCCOCCNC(=O)COCCOCCNC(=O)CC[C@H](NC(=O)CCCCCCCCCCCCCCCCC(=O)O)C(=O)O)nc3)cc12 [Compound 414]	< 1000
